According to US20110206623A1, “NOVEL DIPOLAR IONIC COMPOUNDS COMPRISING FORMULATIONS AND THE USE THEREOF” (EVONIK GOLDSCHMIDT GMBH, priority 2007, published 2011):

What was measured:
[1] = test system: skin model (reconstructed human epidermis) damaged with SDS; experiment: XTT test with an O/W cream with compound 2.1 after SDS damage; assay type: cell-based; details: O/W cream with compound 2.1 applied after 0.25% SDS for 40 min; 24 h incubation
Protocol: (§1) In order to be able to characterize the skin care properties of the compounds 2.1 to 2.8, various in vitro tests were carried out on skin models (reconstructed human epidermis, company: SkinEthic).
The XTT test is based on the ability of the cells to reduce the dye XTT, which can be detected photometrically. This reaction is catalyzed by mitochondrial succinate dehydrogenase and requires NAD(P)H, which can only be formed by metabolically active cells. To sum up, the XTT test describes the viability of the cells.
The XTT test was carried out with a commercially available test kit and took place according to the manufacturer's instructions (XTT Test, Roche Diagnostics, Mannheim, Germany).
The skin model was first damaged with 0.25% SDS for 40 min. Subsequently, the test formulations were applied. After incubating for a time of 24 h, the viability of the cells was determined using the XTT test.
Test formulation: see Example 3.2.

[2] = test system: skin moisture (stratum corneum), forearms of probands; experiment: In vivo moisturizer properties, corneometer, 2 hours after application; design: species or system human
Protocol: The skin moisture is determined in normal fashion using a corneometer.
With the corneometer principle, the skin moisture of the “outer layer” of the epidermis (stratum corneum) is determined by means of a capacity measurement. This principle is based on the fact that the dielectric constants of water and other substances differ. An appropriately shaped measuring capacitor reacts with different changes in capacity on the samples introduced into its sensing volume, which changes in capacity are recorded and evaluated fully automatically by the device. The active probe coated with special glass is pressed against the place on the skin to be measured and, after 1 second, the value measured by the corneometer, thus the degree of moisture on the skin surface, appears on the display
For the experiments described here, use is made of a corneometer CM 825 from Courage & Khazaka. The skin moisture was measured before and 2 hours after application of the test formulations. For this, 4 test panels were each time highlighted on the forearms of 14 probands, on which the different test formulations were applied. Before each measurement, the probands had to spend at least 15 min in a climate-controlled chamber (21-22° C., 55% R.H.).
The difference in the corneometer values before and after application of the test formulations was calculated. […]

[3] = test system: skin moisture, inner side of a forearm of probands; experiment: Long-term moisturizing effect, corneometer, two-week study; assay type: in vivo, human; details: 2% in test formulation 3.9, twice daily for 2 weeks; compared with vehicle; 12 probands
Protocol: In order to investigate the long-term effect of the moisturizing properties of compound 2.1, a study lasting two weeks was carried out with 12 probands. The probands received 2 formulations, one with 2% of compound 2.1 and one without active substance. They had to apply each of these formulations on the inner side of a forearm twice daily. The moisture content was measured before beginning to use and also after 2 weeks.
The moisture content was determined using a corneometer CM 825 (Courage & Khazaka). Before each measurement, the probands had to stay in a climate-controlled chamber (21-22° C., 55% R.H.) for at least 15 min. The difference in the corneometer units with respect to the starting value was calculated each time (ΔCU).

[4] = test system: skin roughness, inner side of a forearm of probands; experiment: Skin roughness by tape stripping and Bradford test; assay type: in vivo, human; details: 2% formulation twice daily
Text: The skin roughness can be quantified in a simple way by means of tape stripping. The rougher the skin surface, e.g. because the skin lipid barrier is damaged, the weaker the binding of the skin cells. In some cases, with very rough skin, this can be seen with the naked eye. The outermost corneocytes are removed by tape stripping. In this connection, the more corneocytes stuck to the tape, the rougher the skin. The corneocytes are subsequently determined quantitatively using a commercially available Bradford test. This is based on the following principle: the triphenylmethane dye Coomassie Brilliant Blue G-250 (CBBG) forms complexes in acid solution both with the cationic and the nonpolar hydrophobic side chains of the proteins. […] Since the extinction coefficient of the dye/protein complex is in addition very much higher than that of the free dye, the increase in the absorption at 595 nm through the formation of the complex can be measured photometrically with high sensitivity against the free dye reagent and is a measure of the protein concentration of the solution.
The study was carried out with 12 probands who received two test formulations, one with 2% compound 2.1 and one without. […] Tape strips were taken and analyzed before the beginning of the application and also after 2 weeks and after 4 weeks. […]

[5] = Water retention capacity on an IMS film; details: 5.0% in test formulation 3.7; 4 hours at 21-22° C. and 72% R.H.; in comparison with the vehicle
Text: The determination of the water retention capacity of active substances using the IMS film represents a simple screening test by which the moisturizing properties of active substances can be very satisfactorily investigated. The measurement is based on the following principle: The IMS film is a membrane which is covered with peptides, lipids and polymers and represents a greatly simplified skin model. The active substance interacts out of the formulation with the film. Combining with water takes place and thus the evaporation of the water is prevented or made more difficult.
Implementation: • 1. The weight of the IMS membrane is determined (W1). • 2. The test formulation is applied, the film is again weighed (W2) and the film is subsequently incubated at 21-22° C. and 72% R.H. for 4 hours. • 3. After the 4 hours have passed, the film is again weighed (W3). • 4. The water retention capacity of the formulation (WR) is calculated as follows: […]

IL-1α = experiment: Anti-inflammatory action of an O/W cream with compound 2.1 (IL-1α after SDS damage); assay type: cell-based, human; details: O/W cream with 1% and 4% of compound 2.1 applied after SDS damage
Protocol: as §1
IL-1α is a […] which plays a central role in inflammatory reactions in the body. Sodium lauryl sulphate (SDS) is a skin-irritating surfactant which can give rise to irritant contact dermatitis in man, is used as model irritant in proband studies and, inter alia, induces the release of IL-1α. The IL-1α concentration was determined with a commercially available test kit (human IL-1α immunoassay, R&D Systems GmbH, Wiesbaden, Germany).
It should be investigated whether the anti-inflammatory effect of the short-chain zwitterionic compounds also appears when used from a cosmetic formulation. For this, skin models were damaged with SDS. Subsequently, the test formulation with 1% and 4% of compound 2.1 was applied. The IL-1α concentration was determined 24 and 48 h after application.

[6] = test system: skin model (reconstructed human epidermis) damaged with SDS; experiment: LDH release after damaging the cells with SDS, O/W cream; assay type: cell-based
Protocol: as §1
The LDH concentration was determined with a commercially available test kit (LDH test kit, Roche Diagnostics, Mannheim, Germany).
Sodium dodecyl sulphate (SDS) is known for attacking the cell membrane and for resulting in increased LDH release. The experiment described below should investigate to what extent compound 2.1 can protect the cells after damaging with SDS.
The skin model was damaged with SDS for 40 min. Subsequently, the test formulation, an O/W cream with 1 or 4% of compound 2.1, was applied. The LDH release was measured 24 h and 48 h after application of the test formulation.

C[N+](C)(CCCNC=O)CC(=O)[O-] [Compound 2.1]
Viability of the skin cells (XTT) after damaging with SDS [1]: more than redoubled
Effectiveness on skin moisture with increasing concentration of use ([2]; 1.0% vs 4.0% in test formulation 3.8): clearly increased with increasing concentration of use
Skin moisture, increase in corneometer units (ΔCU) ([2]; 1.0/4.0% in test formulation 3.8, 14 probands): very clearly increased
Moisture content (ΔCU) after 2 weeks [3]: further enhanced
Skin roughness (amount of protein on tape strips, based on the vehicle), two weeks ([4]; after using for two weeks, compared with the vehicle): clear reduction
Skin roughness (amount of protein on tape strips, based on the vehicle), further use ([4]; further use (after 4 weeks)): even more pronounced
Water retention capacity (WR) [5]: particularly strongly pronounced
SDS-induced increase in IL-1α (overall concentration after 24 and 48 h) (IL-1α): more strongly reduced in a concentration-dependent fashion
Effectiveness on LDH release with 4% compared with 1% ([6]; O/W cream with 4% vs 1% of compound 2.1 after SDS damage): no clear increase in the effectiveness
Reduction of the SDS-induced increase in LDH release (total LDH after 24 and 48 h) ([6]; O/W cream with compound 2.1 applied after 40 min SDS damage, compared with vehicle): clearly intensified
